The target in test [1] is T1, Cx43 HCs (Homo sapiens, UniProt P17302).
T1 construct: expressed in transfected cells
The test can be described thus: Cx43-dependent growth complementation assay in E. coli LB2003. The format is cell-based. The settings on record: for Cx43/Cx26 Selectivity: IC50 Cx26/IC50 Cx43.

In test [2] the target is T2, human Cx26 HCs (Homo sapiens, UniProt P29033).
T2 construct: expressed in transfected cells; host or cells: E. coli LB2003 (carrying pREP4), transformed with pQE-Cx26, IPTG-induced
The test is described as follows: Cx26-dependent growth complementation assay in E. coli LB2003. The format is cell-based. How it is done:
These derivatives were prepared by sequential benzylation and methylation followed by reduction of azido groups or hydrogenolysis of the Bn. […] Connexin HC inhibition was conducted using a bacteria-based assay of HC function^39. In this assay, Cx26 HCs are expressed in E. coli LB2003 cells, which lack three major K^+ uptake systems (Kdp, Kup and Trk), and as a result they cannot grow in low-[K^+] media^39-41. However, growth of this E. coli strain in low-[K^+] medium can be rescued by expression of K^+-permeable channels such as connexin HCs^39, 42-43. Under the conditions of the assay (LB2003 cells expressing HCs and grown in low-K^+ medium), inhibition of the HCs reduces or abolishes growth^39, 42-43. This is a simple assay where bacterial growth in multi-well plates can be followed by measuring the absorbance at 600 nm (OD600)^29.
LB2003 cells generously provided by Dr. E. P. Bakker (Osnabruk University, Osnabruk, Germany) were transformed with the plasmid pQE-Cx26 (human Cx26 into pQE60) and pREP4. […] LB2003 cells cannot grow in low-[K^+] media because of insufficient K^+ uptake for growth due to the knockout of three key K^+ transporters (Atrk, Akup, Akdp strain)^2-4. Details and validation of the growth complementation assay have been published recently^2. In brief, competent LB2003 containing the pREP4 plasmid were transformed with pQE-Cx26. These cells were grown overnight in Luria-Bertani medium (BD, Franklin Lakes, NJ, USA) supplemented with 100 mM KCl (to allow growth) and 0.4 mg/mL ampicillin, and then washed four times with NLM (see below), to remove residual K^+ from the Luria-Bertani medium. The washed cells were resuspended in complementation growth medium to an OD600 of 0.2. NLM contained 46 mM Na2HPO4, 23 mM NaH2PO4, 8 mM (NH4)2SO4, 0.4 mM MgSO4, 0.012 mM FeSO4, 1 mM sodium citrate, 44 mM glucose and 0.006 mM thiamine hydrochloride, pH 7.0. KLM had the same composition that NLM except for the equimolar replacement of Na^+ with K^+. For growth complementation we used NLM+4 mM KCl, and Cx26 expression was induced with 0.5 mM IPTG at the time of dilution to OD600=0.2. For the assay, the cells were seeded in 96-well plates and were incubated at 30° C., with shaking at 500 rpm. OD600 was measured after 18-h incubation in a plate reader. The initial OD600=0.2 was subtracted for growth calculations. Data are presented as means±SEM. Statistically significant differences were calculated by the Student t-test for unpaired data. Data were obtained from at least 3 independent experiments, with 3 repeats per experiment.

The mark [3] stands for this setting: K members, the 21st table, read-out: Cx43 % inhibition.
The mark [4] stands for this setting: Table 3, read-out: Cx243% inhibition.
The mark [5] stands for this setting: 4″,6″-disubstituted AKs, Table 5, read-out: Cx43 IC50.
[6] abbreviates: first Table 2, read-out: IC50, inhibition of Cx26 by synthetic AGs.
The mark [7] stands for this setting: K46 members, the 20th table, read-out: IC50 (μM) against Cx43.
The mark [8] stands for this setting: KI members, the 23rd table, read-out: Cx43 % inhibition.
Where [9] appears, read: Table 6, read-out: Cx43 (% inhibition).

SMILES strings stand for the structures. Read-outs that look alike come from different tables or passages of the source.

T1 sequence (P17302 whole entry): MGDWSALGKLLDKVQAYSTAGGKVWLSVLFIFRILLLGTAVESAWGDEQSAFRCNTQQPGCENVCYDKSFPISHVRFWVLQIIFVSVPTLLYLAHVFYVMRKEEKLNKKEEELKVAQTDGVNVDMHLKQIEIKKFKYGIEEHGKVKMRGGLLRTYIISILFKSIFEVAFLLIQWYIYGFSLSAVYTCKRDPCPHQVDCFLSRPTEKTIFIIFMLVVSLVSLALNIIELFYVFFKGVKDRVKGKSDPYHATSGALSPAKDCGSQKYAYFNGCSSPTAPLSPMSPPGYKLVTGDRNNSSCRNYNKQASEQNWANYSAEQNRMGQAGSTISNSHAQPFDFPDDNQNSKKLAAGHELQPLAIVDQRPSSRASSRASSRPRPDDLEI

On to `Cc1ccc(S(=O)(=O)OC[C@H]2OC(OC3C(N)CC(N)C(O[C@H]4OC(CN)[C@@H](O)C(O)C4O)[C@@H]3O)[C@H](O)C(N)C2O)cc1` (stereo partly shown) [Compound K19], for which the inhibition (as a rule, the relative decrease from the control value, in per cent) at 15 µM in test [1] (setting [3]) was 38.1 ± 2.8%; in test [1] (setting [4]), 38.1 ± 2.8%; in test [2] (Table 3) it was 26.8 ± 1.7%. The inhibition at 50 µM in test [1] (setting [3]) amounted to 51 ± 8.8%; in test [1] (setting [4]), 51 ± 8.8%; in test [2] (Table 3), 49.2 ± 5.5%.
Consider `NCC1OC(OC2C(N)CC(N)C(OC3OC(COCc4ccc5ccccc5c4)C(OCc4ccc5ccccc5c4)C(N)C3O)C2O)C(O)C(O)C1O` (stereo not shown) [Compound 14, 4″,6″-Di-O-(2-naphthalenmethyl) kanamycin], for which the IC50 (as a rule, the concentration that inhibits the measured activity by half) was 6.2 ± 4.4 µM in test [1] (setting [5]) and 4.9 ± 0.2 µM in test [2] (setting [6]). The “Cx43/Cx26 Selectivity” value in test [1] (Table 5) came out at 1.07.
As for `Cc1ccc(COCC2OC(OC3C(N)CC(N)C(OC4OC(CN)C(O)C(O)C4O)C3O)C(O)C(N)C2OCc2ccc(C)cc2)cc1` (stereo not shown) [Compound 11, 4″,6″-Di-O-(4-methylbenzyl) kanamycin], the half-maximal inhibitory concentration (IC50) in test [1] (setting [5]) is 3.1 ± 0.9 µM; in test [1] (setting [7]), 3.1 ± 0.9 µM; in test [1] (the 13th table, read-out: Cx43 IC50), 3.1 ± 0.9 µM; in test [2] (setting [6]) it was 4.3 ± 0.4 µM. The “Cx43/Cx26 Selectivity” value in test [1] (Table 5) was 1.39. In addition, the “Cx43 Imax” value in test [1] (the 13th table) is 80.4 ± 6%. Also, the “Cx26 Imax” value in test [2] (the 13th table) was 102 ± 3%.
As for `NC1CC(N)C(O[C@H]2OC(CNC(=O)c3ccccc3-c3c4ccc(=O)cc-4oc4ccc(O)cc34)[C@@H](O)C(O)C2O)[C@H](O)C1OC1O[C@H](CO)C(O)C(N)[C@H]1O` (stereo partly shown) [KI10], the inhibition at 15 µM in test [1] (setting [8]) is 56.8 ± 8.8%; in test [1] (setting [4]), 56.8 ± 8.8%; in test [1] (setting [9]) it was more than 50%; in test [2] (Table 3), 22.3 ± 6.9%; in test [2] (Table 6), 22.3 ± 6.9%. Further, the inhibition at 50 µM in test [1] (setting [8]) is 83.4 ± 1.1%; in test [1] (setting [4]) it was 83.4 ± 1.1%; in test [1] (setting [9]) it was 83.4 ± 1.1%; in test [2] (Table 3), 79.6 ± 3.5%; in test [2] (Table 6), 79.6 ± 3.5%. Besides, the “Cx43/Cx26 Selectivity” value in test [1] (Table 7) is on record as 1.42. Besides, the IC50 amounted to 8.9 ± 3.7 µM in test [1] (Table 7, read-out: Cx43 IC50) and 12.7 ± 2.2 µM in test [2] (Table 7, read-out: Cx26 IC50).
Regarding `NCC1OC(OC2C(N)CC(N)C(OC3OC(COCc4ccc(Cl)cc4)C(OCc4ccc(Cl)cc4)C(N)C3O)C2O)C(O)C(O)C1O` (stereo not shown) [Compound 12, 4″,6″-Di-O-(4-chlorobenzyl) kanamycin], the IC50 in test [1] (setting [5]) is 17.1 ± 1.7 µM; in test [1] (setting [7]), 20.3 µM; in test [1] (the 12th table, Hill fit, mean ± SEM, some n = 1, read-out: Cx43 IC50) it was 20.3 µM; in test [2] (4″,6″-disubstituted AKs, Table 5, read-out: Cx26 IC50) it was 2.5 ± 0.6 µM; in test [2] (K46 members, the 20th table, read-out: IC50 (μM) against Cx26) it was 2.5 ± 0.6 µM; in test [2] (setting [6]) it was 2.5 ± 0.6 µM. Besides, in test [1] (Table 5), the “Cx43/Cx26 Selectivity” value came to 0.15. For the same compound, in test [1] (the 12th table, Hill fit), the “Cx43 Imax (maximal inhibition)” value came to 133%.
